# Measurements as given in publication PMC12799524, “Putative new biomarkers for renal transporter-mediated drug-drug interactions: Characterization as substrates of organic cation transporter 2, multidrug and toxin extrusion protein 1, and other important drug transporters” (Drug Metabolism and Disposition, 2025).
# Like-named read-outs stand apart in the source and are kept apart here. Marks after values point to notes of the source that are not given here.
# Legend:
# human OCT2 and MATE1 = assay: Intracellular accumulation and transcellular transport in double-transfected MDCK-OCT2-MATE1 monolayers; format: in vitro ADME; settings: for Intracellular concentration in MDCK-OCT2-MATE1 cells vs MDCK-VC cells: 10 μM basal, 60 minutes
# Procedure: (§1) The intracellular accumulation and transcellular, basal to apical transport experiments were performed as previously described in monolayers of polarized single-transfected (MDCK-OCT2, MDCK-MATE1) and double-transfected (MDCK-OCT2-MATE1) MDCK cells, MDCK control cells (MDCK-VC), or Caco-2 cells.[22] In brief, cell monolayers were grown in cell culture inserts on porous membranes. For MDCK-VC, MDCK-OCT2 and Caco-2, 5 × 10^5 cells were used per well; for MDCK-OCT2-MATE1, 6 × 10^5 cells were used, and for MDCK-MATE1, 8 × 10^5 cells were used per well. Cells were grown to confluence for 72 hours, induced with 10 mM sodium butyrate 48 hours after seeding for 24 hours (MDCK only), and subsequently used for transport experiments.
# (§2) In general, after the cell culture medium was removed from both sides of the monolayers, cells were washed at 37 °C with transport buffer of the same composition as described in the previous section. Experiments were started by replacing the medium in the basal compartment with medium containing the putative biomarkers or [^3H]-labeled positive control substrates. The pH of the buffer on the basal side was 7.3 and 6.5 on the apical side for MDCK cells, whereas it was 7.3 on either side for Caco-2 cells. Cells were incubated at 37 °C and the buffer from the apical compartment was taken after 60 minutes for MDCK cells and after 240 minutes for Caco-2 cells. In case of Caco-2 cells, endogenous P-gp was inhibited by adding 2 μM of valspodar to the basal compartment. To measure the cellular accumulation of the test compounds, the remaining medium was removed at the end of the incubation period and the cell monolayers were rapidly rinsed 3 times with ice-cold 0.9% NaCl in water. Filters were detached from the chambers and placed into 500 μL of 80% MeOH containing the aforementioned recovery standards to lyse cells for subsequent LC-MS analysis or into 600 μL of 0.2% SDS (control experiments only). In the control experiments, the radioactivity of the collected apical medium and the solubilized cell monolayers and protein concentrations of the cell lysates were measured in the same way as described for the experiments with HEK cells.
# (§3) The intracellular background of all 5 compounds in HEK cells at the beginning of the uptake experiments was investigated 48 hours after seeding without incubation with transport buffer (ie, 0 minutes). […] Then, cells were lysed with ice-cold 80% MeOH containing the aforementioned recovery standards. In addition, the impact of a 5-minute incubation period with transport buffer without added substance was investigated.
# human OATP1B1 = biological target: T1, human OATP1B1 (Homo sapiens, UniProt Q9Y6L6); assay: Uptake assay in HEK-OATP1B1 vs HEK-VC cells; format: in vitro ADME
# T1 construct: expressed in transfected cells; host or cells: HEK293 (HEK-OATP1B1)
# T1 sequence (Q9Y6L6 1-691): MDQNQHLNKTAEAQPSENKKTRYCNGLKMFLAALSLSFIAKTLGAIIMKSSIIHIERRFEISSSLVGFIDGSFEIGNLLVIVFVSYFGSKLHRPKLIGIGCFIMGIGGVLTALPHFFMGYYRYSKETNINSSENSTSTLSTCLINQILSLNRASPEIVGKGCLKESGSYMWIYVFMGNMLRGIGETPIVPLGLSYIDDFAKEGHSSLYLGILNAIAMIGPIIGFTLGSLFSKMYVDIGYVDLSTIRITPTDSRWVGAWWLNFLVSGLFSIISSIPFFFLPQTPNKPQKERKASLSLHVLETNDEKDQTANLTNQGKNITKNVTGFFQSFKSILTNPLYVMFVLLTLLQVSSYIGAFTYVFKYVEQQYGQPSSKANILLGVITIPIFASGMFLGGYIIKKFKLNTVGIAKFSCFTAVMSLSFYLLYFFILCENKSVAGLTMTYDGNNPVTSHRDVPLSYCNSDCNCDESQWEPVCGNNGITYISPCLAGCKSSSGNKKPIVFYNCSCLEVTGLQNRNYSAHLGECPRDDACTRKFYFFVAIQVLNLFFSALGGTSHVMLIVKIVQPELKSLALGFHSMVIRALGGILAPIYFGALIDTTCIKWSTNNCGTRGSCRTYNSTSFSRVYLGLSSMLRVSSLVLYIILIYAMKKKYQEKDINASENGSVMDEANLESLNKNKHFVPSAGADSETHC
# Procedure: Transport experiments were performed 48 hours after seeding.
# [1] = parameters: method as in PMID 39148267; settings: humans, cited from earlier work; for In Vivo Change of Renal Excretion, Cimetidine: median log2-fold change after treatment with cimetidine; for In Vivo Change of Renal Excretion, Probenecid: median log2-fold change after treatment with probenecid; for In Vivo Change of Renal Excretion, Rifampin: median log2-fold change after treatment with rifampin; for In Vivo Change of Renal Excretion, Verapamil: median log2-fold change after treatment with verapamil
# human OCT2 = biological target: T2, human OCT2 (Homo sapiens, UniProt O15244); assay: Intracellular accumulation and transcellular transport in MDCK-OCT2 monolayers; format: in vitro ADME; parameters: expressed in transfected cells; settings: for Intracellular concentration in MDCK-OCT2 cells in comparison to MDCK-VC cells: 10 μM basal, 60 minutes
# T2 sequence (O15244 1-555): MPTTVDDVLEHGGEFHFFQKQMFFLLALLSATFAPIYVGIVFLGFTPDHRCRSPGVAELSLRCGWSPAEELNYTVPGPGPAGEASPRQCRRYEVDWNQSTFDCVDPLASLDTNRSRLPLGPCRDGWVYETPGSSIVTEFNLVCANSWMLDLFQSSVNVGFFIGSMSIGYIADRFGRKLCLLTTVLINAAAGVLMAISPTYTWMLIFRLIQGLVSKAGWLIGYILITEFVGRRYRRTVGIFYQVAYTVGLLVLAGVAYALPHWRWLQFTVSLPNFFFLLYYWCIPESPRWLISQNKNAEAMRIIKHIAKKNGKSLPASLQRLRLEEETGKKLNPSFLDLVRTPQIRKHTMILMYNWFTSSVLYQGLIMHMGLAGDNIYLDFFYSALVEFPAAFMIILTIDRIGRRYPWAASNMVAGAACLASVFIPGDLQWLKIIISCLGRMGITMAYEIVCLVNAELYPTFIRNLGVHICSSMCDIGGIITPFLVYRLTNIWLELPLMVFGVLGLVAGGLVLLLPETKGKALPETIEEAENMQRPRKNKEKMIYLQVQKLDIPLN
# Procedure: as §1, §2, §3
# [2] = 60 minutes without added substance
# [3] = listed as 5-amino valeric acid betaine
Intracellular concentration in MDCK-OCT2-MATE1 cells vs MDCK-VC cells (human OCT2 and MATE1),Intracellular concentration in MDCK-OCT2 cells in comparison to MDCK-VC cells (human OCT2),Intracellular background in MDCK-OCT2 cells vs MDCK-VC cells (human OCT2; [2]),Compound,In Vitro OATP1B1 (substrate class) (human OATP1B1),"In Vivo Change of Renal Excretion, Cimetidine [1]","In Vivo Change of Renal Excretion, Probenecid [1]","In Vivo Change of Renal Excretion, Rifampin [1]","In Vivo Change of Renal Excretion, Verapamil [1]",Intracellular background in MDCK-OCT2-MATE1 cells (human OCT2 and MATE1; [2]),"Renal elimination, change after cimetidine ([1]; cimetidine)","In Vivo Change of Renal Excretion, Cimetidine [1, 3]","In Vivo Change of Renal Excretion, Probenecid [1, 3]","Plasma concentrations, effect of cimetidine ([1]; cimetidine)","Urine to plasma ratio, change by cimetidine ([1]; cimetidine)","In Vivo Change of Renal Excretion, Cimetidine ([1]; listed as serotonin)"
no significant difference,significantly increased,much lower,"C[N+](C)(C)CCCCC(=O)[O-] [5-Amino valeric acid betaine, 5-amino valeric acid betaine]","0 (significant uptake in HEK cells, but less than 300% of respective control cells or significant reduction of transcellular transport in Caco-2 cells, but reduction not below 50% of respective control without valspodar)",–4.28 ^c log2-fold change,–0.56 ^c log2-fold change,–0.21 log2-fold change,–1.00 log2-fold change,no 5-amino valeric acid betaine could be detected,–3.62 log2-fold change,–4.28 log2-fold change,–1.00 log2-fold change,,,
significantly higher,significantly increased,,"NCCc1c[nH]c2ccc(O)cc12 [Serotonin, serotonin]",-,–2.89 ^c log2-fold change,0.06 log2-fold change,–0.06 log2-fold change,0.00 log2-fold change,,,,,did not sensitively change,–1.94 log2-fold change,–2.89 log2-fold change
no significant difference,significantly increased,,"NCCc1ccc(O)cc1 [Tyramine, tyramine]","0 (significant uptake in HEK cells, but less than 300% of respective control cells or significant reduction of transcellular transport in Caco-2 cells, but reduction not below 50% of respective control without valspodar)",–3.00 ^c log2-fold change,–0.82 log2-fold change,–0.11 log2-fold change,–0.22 log2-fold change,,,,,,,

Compound,Intracellular concentration in MDCK-OCT2-MATE1 cells vs MDCK-VC cells (human OCT2 and MATE1),Intracellular concentration in MDCK-OCT2 cells in comparison to MDCK-VC cells (human OCT2),Intracellular background in MDCK-OCT2 cells vs MDCK-VC cells (human OCT2; [2]),In Vitro OATP1B1 (substrate class) (human OATP1B1),"In Vivo Change of Renal Excretion, Cimetidine [1]","In Vivo Change of Renal Excretion, Probenecid [1]","In Vivo Change of Renal Excretion, Rifampin [1]","In Vivo Change of Renal Excretion, Verapamil [1]",Intracellular background in MDCK-OCT2-MATE1 cells (human OCT2 and MATE1; [2]),"Renal elimination, change after cimetidine ([1]; cimetidine)","In Vivo Change of Renal Excretion, Cimetidine [1, 3]","In Vivo Change of Renal Excretion, Probenecid [1, 3]","Plasma concentrations, effect of cimetidine ([1]; cimetidine)","Urine to plasma ratio, change by cimetidine ([1]; cimetidine)","In Vivo Change of Renal Excretion, Cimetidine ([1]; listed as serotonin)"
"Cn1cnc(CCN)c1 [1-Methylhistamine, 1-methylhistamine]",significantly higher,,,-,–2.01 ^c log2-fold change,–0.25 log2-fold change,–0.07 log2-fold change,0.03 log2-fold change,,,,,,,
